Experimental data reported in patent publication US11299472B2, “Fumarate salt of (R)-3-(1-(2,3-dichloro-4-(pyrazin-2-yl)phenyl)-2,2,2- trifluoroethyl)-1-methyl-1-(1-methylpiperidin-4-yl) urea, methods of preparation, and uses thereof” (Helsinn Healthcare SA, priority 2017, dated 2022).
Values belong to the compound of their own block, whether it stands above or below them. Ends that are not written are not given here.

Assays:
[1] = test system: ghrelin-induced increase of GH; assay: Ghrelin-induced increase of growth hormone in rats; type: in vivo; conditions: after 15 μg/kg ghrelin i.v.
Description: Rats were divided into four groups: 1) 1 ml/kg saline plus 10 ml/kg 0.5% CMC p.o. (n=6); 2) 15 μg/kg ghrelin i.v. plus 10 ml/kg 0.5% CMC p.o. (n=6); 3) 30 mg/kg HM04 fumarate salt p.o. 2 hours before 15 μg/kg ghrelin i.v. (n=6); 4) 10 mg/kg ghrelin antagonist R011 i.p. 30 minutes before 15 μg/kg ghrelin i.v. (n=6). Blood was collected as 100 μl samples at time 0 and at 15 minutes after ghrelin injection. Rats were anesthetized with 64.8 mg/kg sodium pentobarbital. A catheter filled with heparinized saline solution was inserted in the left femoral artery for blood collection and fitted with an extension tube, 1-mL sampling syringe, and a 3-way cock to allow excess blood to return.
Plasma levels of growth hormone (GH) were determined using Rat GH ELISA (Millipore, Catalog No. EZRMGH-45K). Measurements were performed in duplicate. […] One-way and two-way ANOVA test was used to compare differences between groups. All values are presented as mean±SEM. One-way ANOVA was performed followed by Turkey's post hoc test where significance was indicated by p values<0.05 or p values<0.01.

[2] = test system: Snord116+/− (Het) mice and wild-type (WT) littermates; assay: Food intake after acute administration in Prader-Willi mouse model; type: in vivo; conditions: cabergoline 0.5 mg/kg single i.p., fasted 16 hours
Text: The effect of HM04 fumarate salt on food intake behavior and glucose tolerance was investigated in the Snord116+/−(Het) mouse genetic model of Prader-Willi syndrome (Het mouse) compared to wild-type (WT) littermates. Since D2R agonists suppress food intake, the FDA approved D2R agonist cabergoline was used as an experimental control. Phenotypic characteristics of this PWS mouse model include hyperphagia, postnatal growth retardation, high ghrelin, and low growth hormone. Ding F., et al. SnoRNA Snord116 (Pwcr1/MBII-85) deletion causes growth deficiency and hyperphagia in mice. PloS one. 2008; 3(3):e1709. These PWS mice eat more frequently than WT littermates, particularly during the light cycle and are more motivated to work for food (more level presses) (data not shown).
Acute administration: Mice (3-, 7-, and 12-month-old) were fasted for 16 hours and then administered a single intraperitoneal injection of vehicle or vehicle containing HM04, cabergoline, or HM04 and cabergoline according to Table 8, below.
HM04 was dissolved in water for injection and cabergoline was dissolved in DMSO to provide a 5% DMSO/water solution for injection. Mice were then given free access to food, and cumulative food intake was measured at 1, 2, 4, 8, 12, and 24 hours post-dosing. […] Data was analyzed for significance using 2-way ANOVA, Bonferroni post hoc test (Graphpad Prism, Prism 5.0, San Diego, Calif.).

[3] = Dog pharmacokinetic study, HM04 free base vs HM04 fumarate salt (Example 9); type: in vivo, male Beagle dogs
[4] = Rat pharmacokinetic study, HM04 free base vs HM04 fumarate salt (Example 9); type: in vivo, male Sprague Dawley rats; conditions: 3 mg/kg oral
Description: The pharmacokinetics of HM04 in plasma of male Sprague Dawley rats dosed with a single oral administration of 3 mg/kg HM04 (based on the weight of the free base) formulated in a solution of 10% DMAC, 6% Solutol, and 84% PBS using either the HM04 free base or HM04 fumarate salt were compared. Blood samples were withdrawn at set time intervals and plasma concentration of HM04 was measured by LC-MS/MS. A comparison of the plasma concentration of HM04 (ng/mL) over time in rats dosed orally with HM04 free base and HM04 fumarate salt is provided in FIG. 17.

[5] = Estimated aqueous solubility; type: physicochemical; conditions: aqueous (water)
[6] = GVS analysis (hygroscopicity); type: physicochemical
Description: For the GVS analysis, 15-20 mg of sample was loaded into an IgaSorp vapour sorption balance (Hiden Analytical Instruments). The sample was then dried by maintaining a 0% humidity environment until no further weight change was recorded. The sample was then subjected to a ramping profile from 0 to 90% RH at 10% RH increments, maintaining the sample at each step until equilibration had been attained (99% step completion). Upon reaching equilibrium, the % RH within the apparatus was ramped to the next step and the equilibration procedure repeated. After completion of the sorption cycle, the sample was dried using the same procedure. The weight change during the sorption/desorption cycles were then monitored, allowing for the hygroscopic nature of the sample to be determined.

[7] = Rat pharmacokinetic study, HM04 free base vs HM04 fumarate salt (Example 9); type: in vivo, male Sprague Dawley rats
[8] = Dog pharmacokinetic study, HM04 free base vs HM04 fumarate salt (Example 9); type: in vivo, male Beagle dogs; remark: listed apart in the source
Description: The pharmacokinetics of HM04 in plasma of male Beagle dogs dosed with a single oral administration of 2 mg/kg HM04 formulated in a solution of 10% DMAC, 6% Solutol, and 84% PBS using either the HM04 free base or HM04 fumarate salt were compared. A comparison of the plasma concentration of HM04 (ng/mL) over time in dogs dosed orally with HM04 free base and HM04 fumarate salt is provided in FIG. 18. Bioavailability was calculated from a dose normalized ratio of the oral mean AUC to the intravenous mean AUC (AUCpo/AUCiv×Doseiv/Dosepo).

[9] = male, Sprague Dawley, plasma, mean ± S.D., n=3
[10] = male, Beagle, plasma, 2 mg/kg oral, mean ± S.D., n=3

Compound: ghrelin: growth hormone-releasing peptide, injected i.v. to induce GH increase (GSSFLSPEHQRVQQRKESKKPPAKLQPR; ends and bridges not checked; UniProt Q9UBU3 24-51, looked up) [reference compound]
mean plasma GH concentration [1]: 90 to 120 ng/mL

Compound: C=CCN1C[C@H](C(=O)N(CCCN(C)C)C(=O)NCC)C[C@@H]2c3cccc4[nH]cc(c34)C[C@H]21 [Cabergoline, cabergoline, reference compound]
cumulative food intake ([2]; 7-month-old Het mice): inhibited food intake | cumulative food intake ([2]; 7-month-old WT mice): inhibited food intake

HM04 plasma concentration ([3]; 2 mg/kg oral, 1 hour, mean ± S.D., n=3): 66.33 ± 4.25 ng/mL | HM04 plasma concentration ([3]; 2 mg/kg oral, 4 hours, mean ± S.D., n=3): 67.34 ± 6.27 ng/mL | AUC ([3]; male, Beagle, plasma, 1 mg/kg intravenous, three dogs, read-out: mean AUC following intravenous administration): 782 ± 364 ng·h/mL | concentration at 8 h ([3]; male, Beagle, plasma, po, 2 mg/kg, 2 mg/kg oral, 8 hours, mean ± S.D., n=3): 49.2 ± 10.2 ng/mL | concentration at 24 h ([3]; male, Beagle, plasma, po, 2 mg/kg, 2 mg/kg oral, 24 hours, mean ± S.D., n=3): 6.61 ± 4.38 ng/mL | HM04 plasma concentration ([4]; 0.50 hours, mean ± S.D., n=3): 39.0 ± 5.2 ng/mL | HM04 plasma concentration ([4]; 1 hour, mean ± S.D., n=3): 44.4 ± 6.0 ng/mL | HM04 plasma concentration ([4]; 2 hours, mean ± S.D., n=3): 35.7 ± 11.3 ng/mL | HM04 plasma concentration ([4]; 8 hours, mean ± S.D., n=3): 7.9 ± 5.8 ng/mL | AUC(0-t) [4, 9]: 220 ± 57.2 ng·h/mL | Tmax [4, 9]: 1 h | concentration at 24 hours ([4]; male, Sprague Dawley, plasma, po, 3 mg/kg, 24 hours, N = 1 (two of three animals below level of quantification)): 2.4 ng/mL | solubility [5]: < 2000 µg/mL | hygroscopicity (GVS) [6]: slightly hygroscopic | weight gain (GVS) ([6]; up to 70% relative humidity (RH)): approximately 1.5% | weight gain (GVS) ([6]; up to 80% RH): approximately 2% | HM04 plasma concentration ([7]; 3 mg/kg oral, 0.25 hours, mean ± S.D., n=3): 24.2 ± 6.6 ng/mL | HM04 plasma concentration ([7]; 3 mg/kg oral, 4 hours, mean ± S.D., n=3): 25.0 ± 13.0 ng/mL | AUC ([7]; male, Sprague Dawley, plasma, 3 mg/kg intravenous, three rats, read-out: mean AUC following intravenous administration): 990 ± 24.6 ng·h/mL | bioavailability ([7]; male, Sprague Dawley, plasma, 3 mg/kg oral vs 3 mg/kg intravenous mean AUC): 22.2 ± 5.8% | Cmax ([7]; male, Sprague Dawley, plasma, 3 mg/kg oral, mean ± S.D., n=3): 44.4 ± 6 ng/mL | HM04 plasma concentration ([8]; 2 mg/kg oral, 0.25 hours, mean ± S.D., n=3): 8.94 ± 5.56 ng/mL | HM04 plasma concentration ([8]; 2 mg/kg oral, 0.50 hours, mean ± S.D., n=3): 49.40 ± 7.72 ng/mL | HM04 plasma concentration ([8]; 2 mg/kg oral, 2 hours, mean ± S.D., n=3): 74.05 ± 3.77 ng/mL | bioavailability ([8]; male, Beagle, plasma, 2 mg/kg oral vs 1 mg/kg intravenous, dose normalized AUC ratio): 59.4 ± 9.11% | AUC(0-t) [8, 10]: 929 ± 142 ng·h/mL | Cmax [8, 10]: 74 ± 3.77 ng/mL | Tmax [8, 10]: 2 h
Compound: CN1CCC(N(C)C(=O)N[C@H](c2ccc(-c3cnccn3)c(Cl)c2Cl)C(F)(F)F)CC1 [HM04 free base, (R)-3-(1-(2,3-dichloro-4-(pyrazin-2-yl)phenyl)-2,2,2-trifluoroethyl)-1-methyl-1-(1-methylpiperidin-4-yl) Urea]
